Laboratory results published in patent publication US8703825B2, “Compounds, use thereof as medicaments, and method of preparation thereof” (Universite de Lorraine, priority 2008, dated 2014).

Tested on: HaCaT and/or MRC5 eukaryotic cells
Type: cell-based, human
Excerpt: The eukaryotic cells used in our study are HaCaT cells (human keratinocytes), which were kindly supplied by the Pierre Fabre Institute (Toulouse, France); and MRC-5 cells (human embryonic fibroblasts), which were obtained from the company BioMérieux (Lyons, France). These cells are cultivated in DMEM (“Dulbecco's modified Eagle's medium”, Invitrogen 61965) for the HaCaT cells, and MEM (“modified Eagle's medium”, Invitrogen 41090); 10% of fetal calf serum (FCS, Invitrogen, 10270, Batch 40Q5150K) in a humid chamber at 37° C., under 5% CO2. The HaCaT and MRC-5 cells were seeded at 10^4 cells/well in 96-well plates (Sarstedt 831835). […]
It is based on the reduction of yellow tetrazolium salts to purple crystals of formazan, mainly by mitochondrial dehydrogenases. The quantity of formazan formed is proportional to the number of live cells. […] The absorbance is measured at 540 nm with a reference wavelength at 690 nm, using an ELISA plate reader (Multiskan E X, Thermo Electron Corporation, France). […]
The cytotoxicity test is based on incorporation of a vital dye, Neutral Red, in the lysosomes of the viable cells, after exposure of the cells to different concentrations of the test molecules. The quantity of dye, after extraction from the lysosomes, is quantified by means of a spectrophotometer and compared with that obtained in the case of “control” cells, not exposed to the test molecules. […]

## N=C(N)NCCc1ccc(OCCCCCCOc2ccc(CCNC(=N)N)cc2)cc1 [compound 6, 1,6-bis(4-(2-guanidinoethyl)phenoxy)hexane]
  effect on viability and cytotoxicity (in words): slightly less pronounced effect on viability and cytotoxicity
